Measurements published in PMC9803904, “Selective somatostatin receptor 5 inhibition improves hepatic insulin sensitivity” (Pharmacology Research & Perspectives, 2022).

What was measured:
[1] = molecular target: T1, mouse SSTR5 (somatostatin receptor 5) (Mus musculus, UniProt O08858); test: HTRF cAMP antagonist assay in CHO cells stably expressing mouse SSTR5, stimulated with SST28 and forskolin; assay type: cell-based
T1 sequence (O08858 1-362): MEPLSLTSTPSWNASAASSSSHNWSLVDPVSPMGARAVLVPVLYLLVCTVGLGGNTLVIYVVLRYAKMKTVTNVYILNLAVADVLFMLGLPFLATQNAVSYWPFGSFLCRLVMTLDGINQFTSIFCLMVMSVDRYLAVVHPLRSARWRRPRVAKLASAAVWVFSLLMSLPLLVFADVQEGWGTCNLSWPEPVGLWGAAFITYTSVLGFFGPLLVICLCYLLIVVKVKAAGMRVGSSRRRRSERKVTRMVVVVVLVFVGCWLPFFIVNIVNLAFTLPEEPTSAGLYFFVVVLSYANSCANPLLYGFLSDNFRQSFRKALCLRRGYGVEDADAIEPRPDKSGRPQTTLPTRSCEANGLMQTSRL

[2] = molecular target: human SSTR5 (somatostatin receptor 5) (Homo sapiens, UniProt P35346); test: HTRF cAMP antagonist assay in CHO cells stably expressing human SSTR5, stimulated with SST28 and forskolin; assay type: cell-based
Sequence of human SSTR5 (somatostatin receptor 5) (P35346 whole entry): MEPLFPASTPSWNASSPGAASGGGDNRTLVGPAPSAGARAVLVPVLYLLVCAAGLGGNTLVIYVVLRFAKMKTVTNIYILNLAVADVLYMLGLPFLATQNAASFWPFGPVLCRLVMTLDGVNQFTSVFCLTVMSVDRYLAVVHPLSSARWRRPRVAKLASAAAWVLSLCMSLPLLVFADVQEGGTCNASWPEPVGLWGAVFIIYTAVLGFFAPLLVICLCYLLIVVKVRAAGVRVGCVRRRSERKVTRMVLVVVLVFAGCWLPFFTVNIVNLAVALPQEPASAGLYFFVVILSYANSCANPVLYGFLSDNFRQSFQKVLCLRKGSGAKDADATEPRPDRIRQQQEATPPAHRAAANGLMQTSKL

IC50 [1]: 31 nM | IC50 [2]: 9.8 nM
SMILES: Cc1c(C(=O)O)ccn(C2CCN(Cc3cc(C4CC4)c(-c4ccc(F)cc4)c(F)c3OC(C)C)CC2)c1=O [compound-1]
